Type in all cases: functional
Assay [1] in a line: Antioxidant activity assessed as trolox equivalent of hydroxyl radical scavenging activity by DMPO spin trap-based ESR spectrometric method.
The nature of assay [2]: Antioxidant activity assessed as trolox equivalent of alkoxyl radical scavenging activity by DMPO spin trap-based ESR spectrometric method.
Assay [3] can be described thus: Antioxidant activity assessed as trolox equivalent of tert-butyl peroxyl radical scavenging activity by CYPMPO spin trap-based ESR spectrometric method.
A short description of assay [4]: Antioxidant activity assessed as trolox equivalent of superoxide radical scavenging activity by CYPMPO spin trap-based ESR spectrometric method.
Assay [5] in a line: Antioxidant activity assessed as trolox equivalent of singlet oxygen scavenging activity by TMPD spin trap-based ESR spectrometric method.
The nature of assay [6]: Antioxidant activity assessed as trolox equivalent of methyl radical scavenging activity by DMPO spin trap-based ESR spectrometric method.
Assay [7] in a line: Antioxidant activity assessed as rate of methyl radical scavenging activity by DMPO spin trap-based ESR spectrometric method.

For the compound `C=CC(C)(O)CCC=C(C)C` (configuration not stated), the Activity in assay [1] was 0.38 equiv; in assay [2], 0.045 equiv; in assay [3], 0 equiv; in assay [4], 0.27 equiv; in assay [5] it was 0.046 equiv; in assay [6] it was 0 equiv.
Consider `NCCS`, for which the Activity in assay [1] came to 1.5 equiv; in assay [2] it was 0.045 equiv; in assay [3], 0.08 equiv; in assay [4] it was 0.13 equiv; in assay [5], 1.1 equiv; in assay [6], 0.18 equiv. Besides, the K in assay [7] was 2.5 ×10⁶ /M/s.
On to `Cc1ccc(C(C)C)c(O)c1`, for which the Activity worked out at 0.3 equiv in assay [1]; 0.013 equiv in assay [2]; 0.22 equiv in assay [3]; 0.24 equiv in assay [4]; 0.16 equiv in assay [5]; 0 equiv in assay [6].
For the compound `NCCCNCCSP(=O)(O)O`, the Activity stood at 0.76 equiv in assay [1]; 0.054 equiv in assay [2]; 0.058 equiv in assay [3]; 0.3 equiv in assay [4]; 0.17 equiv in assay [5]; 0.2 equiv in assay [6]. In assay [7], the K turned out to be 2.8 ×10⁶ /M/s.
As to `CC1CCC(C(C)C)C(O)C1` (configuration not stated), the Activity in assay [1] was 0.49 equiv; in assay [2] it was 0 equiv; in assay [3] it was 0.31 equiv; in assay [4], 0.39 equiv; in assay [5], 0.22 equiv; in assay [6] it was 0 equiv.
